Measured values from patent US20250235499A1, “ANTI-OVARIAN CANCER PHARMACEUTICAL COMPOSITION AND ACTION TARGET THEREOF” (Zhejiang Chinese Medical University, priority 2024, published 2025).

Legend:
Hey ovarian cancer cell = experiment: Tumor bearing nude mouse model (tumor volume, tumor inhibition rate, body weight); assay type: in vivo, BALB/c nude mice; conditions: intraperitoneal, 15 days; DDP 3 mg/kg, CA 80 mg/kg, BDMC 5 mg/kg; compared to the Control group, P<0.01
Description: Newly housed BALB/c nude mice were placed in an SPF grade feeding room laminar flow rack for adaptive feeding for one week, and the experimental animal status was adjusted. A Hey ovarian cancer cell was cultivated to the logarithmic growth stage, and the original culture medium was discarded. The Hey ovarian cancer cell was washed with PBS buffer, added with 0.1% trypsin digestion for digestion, added with the corresponding culture medium to terminate digestion, centrifuged at 1000 rpm for 3 minutes, and added with PBS buffer to prepare a cell suspension. The cell was counted using a hemocytometer, and the cell concentration was quantified to 5×10^7 cells/mL. After grasping and fixing the nude mouse with the left hand, and the skin at a needle inserting site on the right forelimb axilla of the nude mouse was disinfected with a 75% alcohol cotton ball. A disposable 1 mL syringe was used to inject approximately 100 μL of cell suspension subcutaneously into the posterior axilla of the right forelimb in an oblique stabbing inserting needle mode, so that each nude mouse was injected with approximately 5×10^6 cells. After vaccination, the needle inserting site was gently pressed with a cotton ball to prevent the cell suspension from leaking from a needle hole. The growth status of tumors at the vaccination site of nude mice was observed daily. After about one week, if the tumors at the vaccination site were compacted and appeared light red in color, it could be considered as successful tumor growth. At this time, the nude mice were randomly divided into 5 groups, a Control group intraperitoneally injected with physiological saline for 1 day each time; a DDP group intraperitoneally injected with cisplatin, 3 mg/kg, 3 d/time; a CA group intraperitoneally injected with CA, 80 mg/kg, 1 d/time; a BDMC group intraperitoneally injected with BDMC, 5 mg/kg, 1 d/time; a CA+BDMC group intraperitoneally injected with CA 80 mg/kg+BDMC 5 mg/kg, 1 d/time, 8 animals per group. A tumor length (L) and a […] were measured with a vernier caliper every 3 days to calculate a tumor volume. After 15 days of administration, nude mice were euthanized by dislocation of cervical vertebra, and tumor tissue was dissected. The tumor weight was weighed to calculate the tumor inhibition rate. The tumor tissue was stored in two batches at −80° C. and fixed with 4% paraformaldehyde.

[1] = system: MCM2, CDK4, Cyclin D1, P21; experiment: Western Blot of tumor body cyclin in tumor bearing nude mice; assay type: in vivo, BALB/c nude mice; conditions: nude mouse tumor body, compared to the Control group
Text: The expression of nude mice tumor body cyclin and EMT related proteins in tumor bearing nude mice after intervention with DDP, CA, BDMC, and combined administration was shown in FIG. 29. In the figure, 1 represented the Control group; 2 represented the DDP group; 3 represented the CA group; 4 represented the BDMC group; and 5 represented the CA+BDMC group.

With `N.N.[Cl][Pt][Cl]` [DDP, cisplatin, reference compound] the tumor inhibition rate (Hey ovarian cancer cell) was “significantly increased”, the tumor volume size (Hey ovarian cancer cell) was “significantly reduced” and the “expression of CDK4 protein (Western Blot)” value [1] was “significantly decreased”.
